Results from patent publication US10596218B2, “Coix seed oil containing 16 glycerides, and pharmaceutical preparation and use thereof” (ZHEJIANG KANGLAITE GROUP CO., LTD., priority 2014, dated 2020).
Converted amounts (≈) assume the structure as drawn.

What was measured:
Type in all cases: cell-based
[1] = system: PANC-1 (human pancreatic cancer cells); test: MTT inhibition of cell growth in vitro, PANC-1; conditions: PANC-1, MTT, 48 h, read-out: IC50 values of samples in vitro
Description: (§1) (1) Cell lines: PANC-1 (human pancreatic cancer cells), SKOV3 (human ovarian cancer cells), MCF-7 (human breast cancer cells), Bcap-37 (human breast cancer cells), SMMC-7721 (human hepatic cancer cells), HepG-2 (human hepatic cancer cells), A549 (human lung cancer cells) and H460 (human lung cancer cells), storaged and passaged maintainably in Research and Evaluation Center for Pharmacology, Shanghai Institute of Pharmaceutical Industry;
(§2) The inhibition effects of samples on the above-mentioned cell lines were detected by using MTT method. The specific procedures were as follows: […]
(§3) (4) Cells in a logarithmic growth stage were trypsinized and washed, then re-suspended in the medium containing 10% calf serum. The number of living cells was counted in Trypan blue dye exclusion method and cell suspensions were adjusted into a density of 2×10^5 cell/ml. […]
(§4) (7) 100 μl of crystal dissolving solution was added into each well and cells were incubated continuously in the incubator overnight, so as to dissolve the resulted formazan crystals sufficiently. Then, the absorbance value was measured at 570 nm for each well.
(§5) (8) Based on absorbance values, inhibition rates on the cell growth were calculated for sample groups of various concentrations. The calculation formula was as follows: (1−mean absorbance of experimental wells/mean absorbance of control wells)×100%

[2] = system: SMMC-7721 (human hepatic cancer cells); test: MTT inhibition of cell growth in vitro, SMMC-7721; conditions: SMMC-7721, MTT, 48 h, read-out: IC50 values of samples in vitro
Description: as §1, §2, §3, §4, §5

[3] = system: Bcap-37 (human breast cancer cells); test: MTT inhibition of cell growth in vitro, Bcap-37; conditions: Bcap37, Bcap-37, MTT, 48 h, read-out: IC50 values of samples in vitro
Description: as §1, §2, §3, §4, §5

[4] = system: H460 (human lung cancer cells); test: MTT inhibition of cell growth in vitro, H460; conditions: NCI-H460, 48 h, read-out: IC50 values of samples in vitro
Description: as §1, §2, §3, §4, §5

[5] = system: SKOV3 (human ovarian cancer cells); test: MTT inhibition of cell growth in vitro, SKOV3; conditions: SK-OV-3, 48 h, read-out: IC50 values of samples in vitro
Description: as §1, §2, §3, §4, §5

`CC(=O)O[C@H]1C(=O)[C@@]2(C)[C@H]([C@H](OC(=O)c3ccccc3)[C@]3(O)C[C@H](OC(=O)[C@H](O)[C@@H](NC(=O)c4ccccc4)c4ccccc4)C(C)=C1C3(C)C)[C@]1(OC(C)=O)CO[C@@H]1C[C@@H]2O` [Taxol] showed an IC50 [1] of 0.44 µg/mL (≈ 0.515 µM), an IC50 [2] of 0.12 µg/mL (≈ 0.141 µM) and an IC50 [3] of 0.28 µg/mL (≈ 0.328 µM). The IC50 [4] was 0.49 µg/mL (≈ 0.574 µM) and the IC50 [5] was 0.22 µg/mL (≈ 0.258 µM).
